Experimental data: the NIST ThermoML archive (doi:10.1021/je800636k)
± gives the expanded uncertainty stated by the source.

Assay: xn = mol fraction of the nth substance listed
Settings: 101 kPa, Liquid; for electrical conductivity: Qcond 2400 VWR international / cell constant, 1.05; for viscosity: Concentric cylinders viscometry; for mass density: Vibrating tube method

CCCCn1cc[n+](C)c1C.[N-]=[N+]=[N-] [1-butyl-2,3-dimethylimidazolium azide] + CCCCn1cc[n+](C)c1C.F[B-](F)(F)F
Settings	electrical conductivity [S/m]	mass density [kg/m3]	viscosity [mPa·s]
303.15 K, x1 = 0.25	0.0809 ± 0.0032	–	–
303.15 K, x1 = 0.5	0.0608 ± 0.0024	–	–
303.15 K, x1 = 0.75	0.0604 ± 0.0024	–	–
303.15 K, x1 = 1	0.0488 ± 0.0019	–	–
308.15 K, x1 = 0.25	0.114 ± 0.0046	–	–
308.15 K, x1 = 0.5	0.0887 ± 0.0036	–	–
308.15 K, x1 = 0.75	0.0881 ± 0.0035	–	–
308.15 K, x1 = 1	0.0756 ± 0.003	–	–
313.15 K, x1 = 0.25	0.156 ± 0.0062	1154.97 ± 2.6	210.46 ± 5.5
313.15 K, x1 = 0.5	0.125 ± 0.005	1129.46 ± 2.5	292.06 ± 8.3
313.15 K, x1 = 0.75	0.124 ± 0.005	1098.68 ± 2.3	353.89 ± 11
313.15 K, x1 = 1	0.112 ± 0.0045	1070.46 ± 2.2	338.19 ± 10
318.15 K, x1 = 0.25	0.208 ± 0.0083	–	–
318.15 K, x1 = 0.5	0.172 ± 0.0069	–	–
318.15 K, x1 = 0.75	0.171 ± 0.0068	–	–
318.15 K, x1 = 1	0.159 ± 0.0064	–	–
323.15 K, x1 = 0.25	0.271 ± 0.011	1148.74 ± 2.5	115.24 ± 2.4
323.15 K, x1 = 0.5	0.23 ± 0.0092	1123.48 ± 2.4	156.81 ± 3.6
323.15 K, x1 = 0.75	0.228 ± 0.0091	1092.32 ± 2.3	183.02 ± 4.4
323.15 K, x1 = 1	0.219 ± 0.0088	1065.14 ± 2.2	176.04 ± 4.2
328.15 K, x1 = 0.25	0.345 ± 0.014	–	–
328.15 K, x1 = 0.5	0.302 ± 0.012	–	–
328.15 K, x1 = 0.75	0.299 ± 0.012	–	–
328.15 K, x1 = 1	0.294 ± 0.012	–	–
333.15 K, x1 = 0.25	0.433 ± 0.017	1142.5 ± 2.5	68.72 ± 1.2
333.15 K, x1 = 0.5	0.388 ± 0.015	1117.5 ± 2.4	92.5 ± 1.8
333.15 K, x1 = 0.75	0.383 ± 0.015	1085.96 ± 2.3	105.08 ± 2.1
333.15 K, x1 = 1	0.383 ± 0.015	1059.83 ± 2.2	101.63 ± 2
338.15 K, x1 = 0.25	0.535 ± 0.021	–	–
338.15 K, x1 = 0.5	0.489 ± 0.02	–	–
338.15 K, x1 = 0.75	0.483 ± 0.019	–	–
338.15 K, x1 = 1	0.49 ± 0.02	–	–
343.15 K, x1 = 0.25	0.651 ± 0.026	1136.27 ± 2.5	43.88 ± 0.76
343.15 K, x1 = 0.5	0.608 ± 0.024	1111.52 ± 2.4	58.77 ± 1
343.15 K, x1 = 0.75	0.599 ± 0.024	1079.6 ± 2.3	65.45 ± 1.1
343.15 K, x1 = 1	0.614 ± 0.025	1054.52 ± 2.2	63.6 ± 1.1
348.15 K, x1 = 0.25	0.783 ± 0.031	–	–
348.15 K, x1 = 0.5	0.744 ± 0.03	–	–
348.15 K, x1 = 0.75	0.733 ± 0.029	–	–
348.15 K, x1 = 1	0.756 ± 0.03	–	–
353.15 K, x1 = 0.25	0.929 ± 0.037	1130.03 ± 2.5	29.62 ± 0.51
353.15 K, x1 = 0.5	0.899 ± 0.036	1105.54 ± 2.4	39.64 ± 0.68
353.15 K, x1 = 0.75	0.885 ± 0.035	1073.24 ± 2.2	43.5 ± 0.75
353.15 K, x1 = 1	0.918 ± 0.037	1049.21 ± 2.1	42.44 ± 0.73
358.15 K, x1 = 0.25	1.09 ± 0.044	–	–
358.15 K, x1 = 0.5	1.07 ± 0.043	–	–
358.15 K, x1 = 0.75	1.06 ± 0.042	–	–
358.15 K, x1 = 1	1.1 ± 0.044	–	–
363.15 K, x1 = 0.25	1.27 ± 0.051	1123.8 ± 2.4	20.94 ± 0.36
363.15 K, x1 = 0.5	1.27 ± 0.051	1099.56 ± 2.3	28.06 ± 0.48
363.15 K, x1 = 0.75	1.25 ± 0.05	1066.87 ± 2.2	30.46 ± 0.52
363.15 K, x1 = 1	1.3 ± 0.052	1043.9 ± 2.1	29.82 ± 0.51
368.15 K, x1 = 0.25	1.47 ± 0.059	–	–
368.15 K, x1 = 0.5	1.49 ± 0.059	–	–
368.15 K, x1 = 0.75	1.46 ± 0.058	–	–
368.15 K, x1 = 1	1.52 ± 0.061	–	–
373.15 K, x1 = 0.25	–	1117.56 ± 2.4	15.38 ± 0.26
373.15 K, x1 = 0.5	–	1093.58 ± 2.3	20.68 ± 0.36
373.15 K, x1 = 0.75	–	1060.51 ± 2.2	22.27 ± 0.38
373.15 K, x1 = 1	–	1038.59 ± 2.1	21.87 ± 0.38
